Assay: recombinant UMI read abundance after kanamycin selection (control-corrected) (log10(CPM+1)); higher = more efficient recombination; extreme values may be limits of the assay; sequences stand for … in AGTGCAGAGAAAATCGGCCAGTTTTCTCTGCCTGCAGTCCGCATGCCGTGGGACCCCTTGGGTTCTAACCTGTTGCCTAGATTTATGCAGCGGACTGCCTTTCTCCCAAAGTGATAAACCGG…AGGTTGGTTTCACT; site = the 11-nt donor
Method in brief: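 Values, expressed as log10(CPM+1), derive from recombinant UMI counts converted to CPM, averaged across replicates and scaled by control-derived factors. Plating was with IPTG (0.07 mM) plus kanamycin or unselected, two replicates each. The screen pooled donor and donor-binding-loop pairs for the IS621 bridge recombinase in Escherichia coli.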
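Note: IS621 bridge recombinase in Escherichia coli cells against a fixed T5 target plasmid.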

With “ATCTATACATGGACCGGTTTTCCCGGTAATCCGTATTTGAC (site TTCTATACTGT)” the “recombinant UMI read abundance (log10)” value was 1.19.
For “ATCTATGCATGGACCGGTTTTCCCGGTAATCCGTATTTGAC (site ATCTATACTGT)”, the “recombinant UMI read abundance (log10)” value was 2.11.
With “ATCTATGCATGGACCGGTTTTCCCGGTAATCCGTATTTGAC (site ATCTATCCTGT)” the “recombinant UMI read abundance (log10)” value was 0.
For “ATCTATGCATGGACCGGTTTTCCCGGTAATCCGTATTTGAC (site ATCTATGCTGT)”, the “recombinant UMI read abundance (log10)” value was 2.57.
For “ATCTATGCATGGACCGGTTTTCCCGGTAATCCGTATTTGAC (site ATCTATTCTGT)”, the “recombinant UMI read abundance (log10)” value was 0.
For “ATCTCAGCATGGACCGGTTTTCCCGGTAATCCGTATTTGGG (site AACTCAGCTCC)”, the “recombinant UMI read abundance (log10)” value was 0.0145.
For “ATCTCAGCATGGACCGGTTTTCCCGGTAATCCGTATTTGGG (site ACCTCAGCTCC)”, the “recombinant UMI read abundance (log10)” value was 0.01.
In the case of “ATCTCAGCATGGACCGGTTTTCCCGGTAATCCGTATTTGGG (site AGCTCAGCTCC)”, the “recombinant UMI read abundance (log10)” value is reported as 0.0129.
With “ATCTCAGCATGGACCGGTTTTCCCGGTAATCCGTATTTGGG (site ATCTCAGCTCC)” the “recombinant UMI read abundance (log10)” value was 0.323.
In the case of “ATCTCTACATGGACCGGTTTTCCCGGTAATCCGTATTTGAC (site ATCTATACTGT)”, the “recombinant UMI read abundance (log10)” value is reported as 0.264.
In the case of “ATCTCTACATGGACCGGTTTTCCCGGTAATCCGTATTTGAC (site ATCTCTACTGT)”, the “recombinant UMI read abundance (log10)” value is reported as 2.29.
For “ATCTCTACATGGACCGGTTTTCCCGGTAATCCGTATTTGAC (site ATCTGTACTGT)”, the “recombinant UMI read abundance (log10)” value was 0.00346.
In the case of “ATCTCTACATGGACCGGTTTTCCCGGTAATCCGTATTTGAC (site ATCTTTACTGT)”, the “recombinant UMI read abundance (log10)” value is reported as 0.
With “ATCTGGACATGGACCGGTTTTCCCGGTAATCCGTATTTGCC (site ATCTGGACTGG)” the “recombinant UMI read abundance (log10)” value was 1.25.
In the case of “ATCTGTGCATGGACCGGTTTTCCCGGTAATCCGTATTTGGC (site ATCTGTGCTGC)”, the “recombinant UMI read abundance (log10)” value is reported as 0.
In the case of “ATCTTCCCATGGACCGGTTTTCCCGGTAATCCGTATTTGCA (site ATCTTCCCTTG)”, the “recombinant UMI read abundance (log10)” value is reported as 0.523.
With “ATCTTTACATGGACCGGTTTTCCCGGTAATCCGTATTTGAC (site ATCTATACTGT)” the “recombinant UMI read abundance (log10)” value was 0.832.
With “ATCTTTACATGGACCGGTTTTCCCGGTAATCCGTATTTGAC (site ATCTCTACTGT)” the “recombinant UMI read abundance (log10)” value was 0.
For “ATCTTTACATGGACCGGTTTTCCCGGTAATCCGTATTTGAC (site ATCTGTACTGT)”, the “recombinant UMI read abundance (log10)” value was 0.247.
In the case of “ATCTTTACATGGACCGGTTTTCCCGGTAATCCGTATTTGAC (site ATCTTTACTGT)”, the “recombinant UMI read abundance (log10)” value is reported as 0.661.
For “ATGAACACATGGACCGGTTTTCCCGGTAATCCGTATTTGTG (site ATGAACACTCA)”, the “recombinant UMI read abundance (log10)” value was 1.96.
In the case of “ATGACATCATGGACCGGTTTTCCCGGTAATCCGTATTTGAT (site ATGACATCTAT)”, the “recombinant UMI read abundance (log10)” value is reported as 2.14.
In the case of “ATGACGGCATGGACCGGTTTTCCCGGTAATCCGTATTTGAG (site ATGACGGCTCT)”, the “recombinant UMI read abundance (log10)” value is reported as 1.39.
With “ATGACTCCATGGACCGGTTTTCCCGGTAATCCGTATTTGGA (site ATGACTCCTTC)” the “recombinant UMI read abundance (log10)” value was 0.437.
For “ATGACTGCATGGACCGGTTTTCCCGGTAATCCGTATTTGCG (site ATGACTGCTCG)”, the “recombinant UMI read abundance (log10)” value was 1.7.
In the case of “ATGAGCGCATGGACCGGTTTTCCCGGTAATCCGTATTTGGG (site ATGAGCGCTCC)”, the “recombinant UMI read abundance (log10)” value is reported as 0.00562.
With “ATGAGGACATGGACCGGTTTTCCCGGTAATCCGTATTTGCT (site ATGAGGACTAG)” the “recombinant UMI read abundance (log10)” value was 2.89.
In the case of “ATGATATCATGGACCGGTTTTCCCGGTAATCCGTATTTGCA (site ATGATATCTTG)”, the “recombinant UMI read abundance (log10)” value is reported as 2.39.
For “ATGATCTCATGGACCGGTTTTCCCGGTAATCCGTATTTGCG (site ATGATCTCTCG)”, the “recombinant UMI read abundance (log10)” value was 3.11.
For “ATGCAAACATGGACCGGTTTTCCCGGTAATCCGTATTTGGA (site ATGCAAACTTC)”, the “recombinant UMI read abundance (log10)” value was 1.69.
For “ATGCAGACATGGACCGGTTTTCCCGGTAATCCGTATTTGTT (site ATGCAGACTAA)”, the “recombinant UMI read abundance (log10)” value was 1.92.
With “ATGCCATCATGGACCGGTTTTCCCGGTAATCCGTATTTGCA (site ATGCCATCTTG)” the “recombinant UMI read abundance (log10)” value was 1.98.
With “ATGCGTTCATGGACCGGTTTTCCCGGTAATCCGTATTTGGG (site ATGCGTTCTCC)” the “recombinant UMI read abundance (log10)” value was 1.05.
For “ATGGAAACATGGACCGGTTTTCCCGGTAATCCGTATTTGCG (site ATGGAAACTCG)”, the “recombinant UMI read abundance (log10)” value was 2.39.
In the case of “ATGGAGACATGGACCGGTTTTCCCGGTAATCCGTATTTGTA (site ATGGAGACTTA)”, the “recombinant UMI read abundance (log10)” value is reported as 2.41.
With “ATGGAGACATGGACCGGTTTTCCCGGTAATCCGTATTTGTG (site ATGGAGACTCA)” the “recombinant UMI read abundance (log10)” value was 1.96.
In the case of “ATGGAGGCATGGACCGGTTTTCCCGGTAATCCGTATTTGGC (site ATGAAGGCTGC)”, the “recombinant UMI read abundance (log10)” value is reported as 2.07.
In the case of “ATGGAGGCATGGACCGGTTTTCCCGGTAATCCGTATTTGGC (site ATGCAGGCTGC)”, the “recombinant UMI read abundance (log10)” value is reported as 1.03.
In the case of “ATGGAGGCATGGACCGGTTTTCCCGGTAATCCGTATTTGGC (site ATGGAGGCTGC)”, the “recombinant UMI read abundance (log10)” value is reported as 2.53.
In the case of “ATGGAGGCATGGACCGGTTTTCCCGGTAATCCGTATTTGGC (site ATGTAGGCTGC)”, the “recombinant UMI read abundance (log10)” value is reported as 1.48.
For “ATGGAGGCATGGACCGGTTTTCCCGGTAATCCGTATTTGTG (site ATGGAGGCTCA)”, the “recombinant UMI read abundance (log10)” value was 1.11.
For “ATGGAGGCATGGACCGGTTTTCCCGGTAATCCGTATTTGTG (site CTGGAGGCTCA)”, the “recombinant UMI read abundance (log10)” value was 0.764.
With “ATGGAGGCATGGACCGGTTTTCCCGGTAATCCGTATTTGTG (site GTGGAGGCTCA)” the “recombinant UMI read abundance (log10)” value was 0.0176.
With “ATGGAGGCATGGACCGGTTTTCCCGGTAATCCGTATTTGTG (site TTGGAGGCTCA)” the “recombinant UMI read abundance (log10)” value was 0.765.
With “ATGGCTACATGGACCGGTTTTCCCGGTAATCCGTATTTGGG (site ATGGCTACTCC)” the “recombinant UMI read abundance (log10)” value was 0.356.
For “ATGTAAGCATGGACCGGTTTTCCCGGTAATCCGTATTTGGC (site ATGTAAGCTGC)”, the “recombinant UMI read abundance (log10)” value was 3.24.
With “ATGTAAGCATGGACCGGTTTTCCCGGTAATCCGTATTTGGC (site ATGTACGCTGC)” the “recombinant UMI read abundance (log10)” value was 0.982.
With “ATGTAAGCATGGACCGGTTTTCCCGGTAATCCGTATTTGGC (site ATGTAGGCTGC)” the “recombinant UMI read abundance (log10)” value was 2.04.
For “ATGTAAGCATGGACCGGTTTTCCCGGTAATCCGTATTTGGC (site ATGTATGCTGC)”, the “recombinant UMI read abundance (log10)” value was 0.
In the case of “ATGTACGCATGGACCGGTTTTCCCGGTAATCCGTATTTGGT (site ATGTACGCTAC)”, the “recombinant UMI read abundance (log10)” value is reported as 1.42.
For “ATGTAGGCATGGACCGGTTTTCCCGGTAATCCGTATTTGCC (site ATGTAGGCTGA)”, the “recombinant UMI read abundance (log10)” value was 1.76.
With “ATGTAGGCATGGACCGGTTTTCCCGGTAATCCGTATTTGCC (site ATGTAGGCTGC)” the “recombinant UMI read abundance (log10)” value was 0.
For “ATGTAGGCATGGACCGGTTTTCCCGGTAATCCGTATTTGCC (site ATGTAGGCTGG)”, the “recombinant UMI read abundance (log10)” value was 2.21.
With “ATGTAGGCATGGACCGGTTTTCCCGGTAATCCGTATTTGCC (site ATGTAGGCTGT)” the “recombinant UMI read abundance (log10)” value was 1.7.
With “ATGTAGTCATGGACCGGTTTTCCCGGTAATCCGTATTTGGT (site ATGTAGTCTAC)” the “recombinant UMI read abundance (log10)” value was 2.81.
For “ATTAAGTCATGGACCGGTTTTCCCGGTAATCCGTATTTGTA (site ATTAAGTCTTA)”, the “recombinant UMI read abundance (log10)” value was 2.58.
For “ATTAGAACATGGACCGGTTTTCCCGGTAATCCGTATTTGAG (site AATAGAACTCT)”, the “recombinant UMI read abundance (log10)” value was 0.403.
In the case of “ATTAGAACATGGACCGGTTTTCCCGGTAATCCGTATTTGAG (site ACTAGAACTCT)”, the “recombinant UMI read abundance (log10)” value is reported as 0.665.
For “ATTAGAACATGGACCGGTTTTCCCGGTAATCCGTATTTGAG (site AGTAGAACTCT)”, the “recombinant UMI read abundance (log10)” value was 0.286.
For “ATTAGAACATGGACCGGTTTTCCCGGTAATCCGTATTTGAG (site ATTAGAACTCT)”, the “recombinant UMI read abundance (log10)” value was 1.22.
For “ATTAGGCCATGGACCGGTTTTCCCGGTAATCCGTATTTGAC (site ATAAGGCCTGT)”, the “recombinant UMI read abundance (log10)” value was 0.
With “ATTAGGCCATGGACCGGTTTTCCCGGTAATCCGTATTTGAC (site ATCAGGCCTGT)” the “recombinant UMI read abundance (log10)” value was 0.0148.
With “ATTAGGCCATGGACCGGTTTTCCCGGTAATCCGTATTTGAC (site ATGAGGCCTGT)” the “recombinant UMI read abundance (log10)” value was 0.
In the case of “ATTAGGCCATGGACCGGTTTTCCCGGTAATCCGTATTTGAC (site ATTAGGCCTGT)”, the “recombinant UMI read abundance (log10)” value is reported as 0.
With “ATTATCCCATGGACCGGTTTTCCCGGTAATCCGTATTTGCC (site ATTATCCCTGG)” the “recombinant UMI read abundance (log10)” value was 0.749.
With “ATTCACGCATGGACCGGTTTTCCCGGTAATCCGTATTTGCA (site ATTCACGCTTG)” the “recombinant UMI read abundance (log10)” value was 2.42.
With “ATTCAGCCATGGACCGGTTTTCCCGGTAATCCGTATTTGTT (site ATTCAGCCTAA)” the “recombinant UMI read abundance (log10)” value was 0.0136.
For “ATTCATACATGGACCGGTTTTCCCGGTAATCCGTATTTGGC (site ATTCATACTGC)”, the “recombinant UMI read abundance (log10)” value was 1.81.
For “ATTCCATCATGGACCGGTTTTCCCGGTAATCCGTATTTGAC (site ATTCCATCTGT)”, the “recombinant UMI read abundance (log10)” value was 0.764.
With “ATTCCGACATGGACCGGTTTTCCCGGTAATCCGTATTTGTG (site ATTCCGACTCA)” the “recombinant UMI read abundance (log10)” value was 0.00802.
For “ATTCGAGCATGGACCGGTTTTCCCGGTAATCCGTATTTGAA (site ATTCGAGCTTT)”, the “recombinant UMI read abundance (log10)” value was 1.31.
In the case of “ATTGAAACATGGACCGGTTTTCCCGGTAATCCGTATTTGGT (site ATTGAAACTAC)”, the “recombinant UMI read abundance (log10)” value is reported as 1.66.
For “ATTGAAACATGGACCGGTTTTCCCGGTAATCCGTATTTGGT (site ATTGACACTAC)”, the “recombinant UMI read abundance (log10)” value was 0.0867.
For “ATTGAAACATGGACCGGTTTTCCCGGTAATCCGTATTTGGT (site ATTGAGACTAC)”, the “recombinant UMI read abundance (log10)” value was 0.484.
For “ATTGAAACATGGACCGGTTTTCCCGGTAATCCGTATTTGGT (site ATTGATACTAC)”, the “recombinant UMI read abundance (log10)” value was 0.0144.
